In patent US20190262330A1, “Method of Treating Hepatocellular Carcinoma Using N-(4-(6,7-dimethoxyquinolin-4-yloxy)phenyl)-N′-(4-fluorophenyl)cyclopropane-1,1-dicarboxamide, (2S)-hydroxybutanedioate” (Exelixis, Inc., priority 2017, published 2019):

Tests used:
CYP3A4 [1] = target: T1, CYP3A4 (Homo sapiens, UniProt P08684); assay: In vitro CYP inhibition; type: in vitro ADME
CYP3A4 [2] = target: T1, CYP3A4; assay: In vitro metabolic pathways; type: in vitro ADME
[3] = Clinical pharmacokinetics; type: in vivo, human
CYP2B6 [4] = target: CYP2B6 (Homo sapiens, UniProt P20813); assay: In vitro metabolic pathways; type: in vitro ADME
ROS1 = ROS1 (Homo sapiens, UniProt P08922); assay: In vitro biochemical and/or cellular kinase assays
female rats = assay: 14-day general toxicology study in female rats; type: in vivo, rat; conditions: 5 mg/kg/day for 14 days
CYP2A6 = CYP2A6 (Homo sapiens, UniProt P11509); assay: In vitro metabolic pathways; type: in vitro ADME
[5] = tested on: advanced hepatocellular carcinoma; conditions: from study entry; cited from earlier work
CYP2C9 = assay: In vitro CYP induction; type: in vitro ADME
CYP3A4 [6] = assay: Drug interaction with strong CYP3A4 inducer rifampin; type: in vivo, human; conditions: rifampin 600 mg daily for 31 days, healthy subjects
CYP2C8 [7] = target: CYP2C8 (Homo sapiens, UniProt P10632); assay: In vitro CYP inhibition; type: in vitro ADME
CYP2C8 [8] = assay: In vitro CYP induction; type: in vitro ADME
TRKB = TRKB (Homo sapiens, UniProt Q16620); assay: In vitro biochemical and/or cellular kinase assays
CYP2C19 [9] = target: T2, CYP2C19 (Homo sapiens, UniProt P33261); assay: In vitro CYP inhibition; type: in vitro ADME
CYP1A2 = assay: In vitro CYP induction; type: in vitro ADME
CYP2C19 [10] = target: T2, CYP2C19; assay: In vitro metabolic pathways; type: in vitro ADME
CYP3A4 [11] = target: T1, CYP3A4; assay: Drug interaction with strong CYP3A4 inhibitor ketoconazole; type: in vivo; parameters: from tissue; conditions: ketoconazole 400 mg daily for 27 days, healthy subjects
[12] = tested on: previously treated advanced hepatocellular carcinoma; assay: Phase 3 CELESTIAL trial, efficacy (overall survival, progression-free survival, objective response); type: in vivo, human
Description: Eligible patients were 18 years of age or older with a pathologic diagnosis of hepatocellular carcinoma not amenable to curative treatment and with Child-Pugh Class A liver function. […] Additional inclusion criteria included Eastern Cooperative Oncology Group (ECOG) performance status of 0 or 1, acceptable hematologic parameters, and adequate renal function.
Randomization was stratified by disease etiology (HBV virus [with or without HCV], HCV [without HBV], or other), geographic region (Asia or other), and the presence of extrahepatic spread of disease and/or macrovascular invasion (yes or no).
Treatment interruptions and dose reductions (to 40 mg and then to 20 mg) were utilized to manage adverse events. Patients received study treatment as long as they experienced clinical benefit as judged by the investigator or until they experienced unacceptable toxicity.
The inflation of type 1 error was controlled by Lan-DeMets O'Brien-Fleming alpha-spending function.
Secondary efficacy endpoints were progression-free survival, defined as the time from randomization to the earlier of radiographic progression or death due to any cause, and objective response rate. Tumor assessments were performed using computed tomography or magnetic resonance imaging at baseline and every 8 weeks after randomization until the later of 8 weeks after radiographic progression or treatment discontinuation. Tumor response and progression were assessed by the investigator using Response Evaluation Criteria In Solid Tumors (RECIST) version 1.1. Eisenhauer E A, Therasse P, Bogaerts J, et al. New response evaluation criteria in solid tumours: revised RECIST guideline (version 1.1). […] Safety was continuously evaluated, and the severity of adverse events was assessed by the investigator using the National Cancer Institute Common Terminology Criteria for Adverse Events, version 4. Progression-free survival was tested by stratified log-rank test; significance level 0.04. Overall response rate was tested by 2-sided Fisher's exact test; significance level Of 0.01.
Efficacy was analyzed in all randomized patients by the intent-to-treat principle. Safety was analyzed in all patients who received at least one dose of study treatment. […] Hazard ratios were estimated using Cox regression models. Hypothesis testing for objective response was done with the Cochran-Mantel-Haenszel method. All subgroup analyses of overall survival and progression-free survival were prespecified except for those based on extrahepatic spread of disease or macrovascular invasion as separate factors or sorafenib as the only prior therapy. For subgroup analyses, no adjustments were made for multiplicity, hazard ratios are unstratified, and confidence intervals are considered descriptive.
Patients could have received one other prior systemic therapy. The primary efficacy endpoint was overall survival (OS). Secondary efficacy endpoints were progression-free survival (PFS) and objective response rate (ORR), as assessed by investigator using RECIST 1.1. Tumor assessments were conducted every 8 weeks.

CYP2D6 = CYP2D6 (Homo sapiens, UniProt P10635); assay: In vitro CYP inhibition; type: in vitro ADME
[13] = Population pharmacokinetic analysis in specific populations; type: in vivo, human; conditions: integrated population pharmacokinetic analysis
Description: The pooled analysis included 391 patients with HCC of whom […] were categorized as having normal liver function, mild, and moderate hepatic impairment, respectively.

CYP2B6 [14] = assay: In vitro CYP induction; type: in vitro ADME
CYP2C19 [15] = assay: In vitro CYP induction; type: in vitro ADME
AXL = AXL (Homo sapiens, UniProt P30530); assay: In vitro biochemical and/or cellular kinase assays
[16] = subgroup whose only prior systemic therapy was sorafenib

T1 sequence (P08684 whole entry): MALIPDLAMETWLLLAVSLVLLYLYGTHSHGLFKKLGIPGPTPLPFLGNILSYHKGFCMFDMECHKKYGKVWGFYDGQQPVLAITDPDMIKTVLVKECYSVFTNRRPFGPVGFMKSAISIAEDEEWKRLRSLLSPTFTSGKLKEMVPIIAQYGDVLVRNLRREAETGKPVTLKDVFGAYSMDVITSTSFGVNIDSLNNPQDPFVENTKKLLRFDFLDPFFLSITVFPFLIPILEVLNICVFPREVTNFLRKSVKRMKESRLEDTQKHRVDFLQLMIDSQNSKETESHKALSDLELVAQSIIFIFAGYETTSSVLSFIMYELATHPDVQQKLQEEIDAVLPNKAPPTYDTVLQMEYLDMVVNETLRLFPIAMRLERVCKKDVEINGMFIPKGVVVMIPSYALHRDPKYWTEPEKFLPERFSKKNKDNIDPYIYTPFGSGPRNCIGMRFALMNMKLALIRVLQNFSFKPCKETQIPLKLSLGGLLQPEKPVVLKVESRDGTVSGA
T2 sequence (P33261 whole entry): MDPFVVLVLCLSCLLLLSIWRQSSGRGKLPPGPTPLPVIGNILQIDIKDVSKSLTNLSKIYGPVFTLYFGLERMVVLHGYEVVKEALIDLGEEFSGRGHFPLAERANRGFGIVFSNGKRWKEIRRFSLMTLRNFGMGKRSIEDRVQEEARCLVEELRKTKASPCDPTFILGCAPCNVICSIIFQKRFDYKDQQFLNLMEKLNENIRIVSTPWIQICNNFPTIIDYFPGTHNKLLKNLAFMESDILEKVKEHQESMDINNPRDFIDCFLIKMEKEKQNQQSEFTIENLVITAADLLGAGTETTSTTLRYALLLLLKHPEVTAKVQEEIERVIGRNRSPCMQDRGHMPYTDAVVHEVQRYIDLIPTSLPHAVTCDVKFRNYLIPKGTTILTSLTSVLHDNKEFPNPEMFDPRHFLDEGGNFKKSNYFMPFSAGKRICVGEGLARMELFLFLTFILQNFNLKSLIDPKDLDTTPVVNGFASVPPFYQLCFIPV
CYP2B6 (Homo sapiens, UniProt P20813), sequence (P20813 whole entry): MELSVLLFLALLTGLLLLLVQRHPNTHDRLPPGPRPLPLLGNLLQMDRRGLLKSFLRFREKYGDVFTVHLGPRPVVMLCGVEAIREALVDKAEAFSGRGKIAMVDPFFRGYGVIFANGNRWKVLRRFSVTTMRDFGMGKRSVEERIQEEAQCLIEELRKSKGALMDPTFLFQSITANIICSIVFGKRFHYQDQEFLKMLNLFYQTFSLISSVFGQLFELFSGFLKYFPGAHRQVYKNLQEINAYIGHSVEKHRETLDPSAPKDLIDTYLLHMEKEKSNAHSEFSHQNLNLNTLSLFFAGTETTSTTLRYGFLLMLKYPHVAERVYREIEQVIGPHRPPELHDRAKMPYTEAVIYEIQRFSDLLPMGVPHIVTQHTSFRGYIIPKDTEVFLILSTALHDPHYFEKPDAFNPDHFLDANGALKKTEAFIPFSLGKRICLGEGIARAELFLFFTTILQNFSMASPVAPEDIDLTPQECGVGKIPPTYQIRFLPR
CYP2A6, sequence (P11509 whole entry): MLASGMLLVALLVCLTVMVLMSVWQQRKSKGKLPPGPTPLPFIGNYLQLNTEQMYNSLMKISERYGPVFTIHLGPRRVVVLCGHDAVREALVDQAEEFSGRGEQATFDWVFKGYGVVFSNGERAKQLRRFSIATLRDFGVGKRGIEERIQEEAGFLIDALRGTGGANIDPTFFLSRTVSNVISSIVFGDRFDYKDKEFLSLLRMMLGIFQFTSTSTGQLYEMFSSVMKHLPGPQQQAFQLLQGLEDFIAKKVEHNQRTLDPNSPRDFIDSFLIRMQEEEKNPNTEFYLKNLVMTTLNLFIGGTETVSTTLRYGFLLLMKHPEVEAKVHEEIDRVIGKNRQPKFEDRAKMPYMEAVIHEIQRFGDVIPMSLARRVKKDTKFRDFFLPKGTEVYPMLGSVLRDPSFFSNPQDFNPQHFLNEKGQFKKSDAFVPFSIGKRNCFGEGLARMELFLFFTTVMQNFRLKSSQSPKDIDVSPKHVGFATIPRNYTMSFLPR
ROS1, sequence (P08922 28-2347): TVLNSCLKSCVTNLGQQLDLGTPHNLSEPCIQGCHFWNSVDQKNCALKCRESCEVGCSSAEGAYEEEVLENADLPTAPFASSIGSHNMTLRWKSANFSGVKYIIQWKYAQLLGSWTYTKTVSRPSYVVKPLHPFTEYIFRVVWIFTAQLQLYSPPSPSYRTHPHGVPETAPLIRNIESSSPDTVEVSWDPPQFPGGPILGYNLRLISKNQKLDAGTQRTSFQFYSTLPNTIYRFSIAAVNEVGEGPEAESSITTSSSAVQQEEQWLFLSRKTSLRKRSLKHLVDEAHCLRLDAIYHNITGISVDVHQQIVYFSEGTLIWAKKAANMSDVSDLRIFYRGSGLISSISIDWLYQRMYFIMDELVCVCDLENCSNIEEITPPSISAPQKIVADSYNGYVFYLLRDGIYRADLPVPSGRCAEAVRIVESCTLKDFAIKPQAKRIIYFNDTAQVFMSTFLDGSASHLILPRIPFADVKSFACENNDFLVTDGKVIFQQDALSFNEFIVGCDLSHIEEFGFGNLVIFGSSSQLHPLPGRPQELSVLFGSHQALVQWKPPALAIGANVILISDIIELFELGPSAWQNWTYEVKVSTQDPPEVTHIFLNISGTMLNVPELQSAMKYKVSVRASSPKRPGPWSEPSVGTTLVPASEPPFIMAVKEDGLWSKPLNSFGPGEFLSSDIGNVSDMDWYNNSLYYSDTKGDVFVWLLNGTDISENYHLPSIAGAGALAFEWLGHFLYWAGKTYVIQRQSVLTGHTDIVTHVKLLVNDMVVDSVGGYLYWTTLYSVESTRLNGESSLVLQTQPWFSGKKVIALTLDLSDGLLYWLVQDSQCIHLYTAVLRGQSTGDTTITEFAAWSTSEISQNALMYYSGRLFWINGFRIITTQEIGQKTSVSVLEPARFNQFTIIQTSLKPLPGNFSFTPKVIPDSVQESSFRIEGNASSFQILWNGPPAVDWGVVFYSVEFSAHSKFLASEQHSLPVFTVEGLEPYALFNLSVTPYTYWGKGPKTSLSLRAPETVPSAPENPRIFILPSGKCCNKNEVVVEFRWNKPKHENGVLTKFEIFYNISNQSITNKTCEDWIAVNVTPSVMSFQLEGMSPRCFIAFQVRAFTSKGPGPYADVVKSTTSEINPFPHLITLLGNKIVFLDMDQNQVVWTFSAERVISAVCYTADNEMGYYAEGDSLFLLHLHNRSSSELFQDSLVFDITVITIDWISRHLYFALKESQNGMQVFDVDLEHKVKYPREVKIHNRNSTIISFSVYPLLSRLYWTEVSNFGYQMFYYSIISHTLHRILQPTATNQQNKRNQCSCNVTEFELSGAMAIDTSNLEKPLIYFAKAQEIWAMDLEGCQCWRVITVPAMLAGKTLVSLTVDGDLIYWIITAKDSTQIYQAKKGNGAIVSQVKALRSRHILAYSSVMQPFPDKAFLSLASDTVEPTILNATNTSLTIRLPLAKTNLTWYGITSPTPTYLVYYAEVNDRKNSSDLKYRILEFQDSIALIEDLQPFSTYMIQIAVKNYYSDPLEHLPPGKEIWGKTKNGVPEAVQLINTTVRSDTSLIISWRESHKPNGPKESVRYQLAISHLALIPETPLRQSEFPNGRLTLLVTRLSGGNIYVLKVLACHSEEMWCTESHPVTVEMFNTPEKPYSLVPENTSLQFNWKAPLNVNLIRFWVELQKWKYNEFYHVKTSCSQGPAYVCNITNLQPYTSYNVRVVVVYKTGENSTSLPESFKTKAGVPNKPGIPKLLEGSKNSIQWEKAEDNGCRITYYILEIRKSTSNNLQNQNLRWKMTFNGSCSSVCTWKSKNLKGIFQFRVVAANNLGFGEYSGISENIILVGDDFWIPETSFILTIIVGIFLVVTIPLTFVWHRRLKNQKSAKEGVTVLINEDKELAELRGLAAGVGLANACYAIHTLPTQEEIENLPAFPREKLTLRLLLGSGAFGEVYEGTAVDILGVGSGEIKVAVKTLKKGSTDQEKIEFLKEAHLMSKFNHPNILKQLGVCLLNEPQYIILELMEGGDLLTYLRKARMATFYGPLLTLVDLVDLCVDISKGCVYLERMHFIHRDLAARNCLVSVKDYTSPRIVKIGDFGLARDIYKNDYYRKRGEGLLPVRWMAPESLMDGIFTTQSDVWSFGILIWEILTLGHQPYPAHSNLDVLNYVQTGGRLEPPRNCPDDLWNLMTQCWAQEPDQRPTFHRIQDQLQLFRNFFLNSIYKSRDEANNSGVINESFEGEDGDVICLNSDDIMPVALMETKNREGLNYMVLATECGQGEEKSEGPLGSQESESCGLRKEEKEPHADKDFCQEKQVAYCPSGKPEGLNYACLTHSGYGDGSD
CYP2C8 (Homo sapiens, UniProt P10632), sequence (P10632 whole entry): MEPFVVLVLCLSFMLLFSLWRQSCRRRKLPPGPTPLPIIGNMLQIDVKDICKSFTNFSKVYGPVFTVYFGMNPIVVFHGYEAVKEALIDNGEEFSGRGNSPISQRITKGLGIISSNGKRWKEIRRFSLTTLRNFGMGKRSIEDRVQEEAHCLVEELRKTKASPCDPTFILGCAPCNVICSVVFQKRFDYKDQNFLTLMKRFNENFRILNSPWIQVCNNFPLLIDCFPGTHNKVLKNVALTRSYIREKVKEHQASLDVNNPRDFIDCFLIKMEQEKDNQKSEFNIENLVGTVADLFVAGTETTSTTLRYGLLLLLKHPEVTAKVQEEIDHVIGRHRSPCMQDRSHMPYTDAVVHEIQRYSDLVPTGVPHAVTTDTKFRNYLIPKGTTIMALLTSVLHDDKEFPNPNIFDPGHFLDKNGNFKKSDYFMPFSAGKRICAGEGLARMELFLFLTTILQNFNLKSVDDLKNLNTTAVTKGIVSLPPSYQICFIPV

COc1cc2nccc(Oc3ccc(NC(=O)C4(C(=O)Nc5ccc(F)cc5)CC4)cc3)c2cc1OC [cabozantinib]
Effect on CYP3A4 pathway (CYP3A4 [1]): affected by cabozantinib in vitro
CYP3A4 substrate status (CYP3A4 [2]): substrate
Steady state achieved ([3]; 140 mg daily): ≤ 15 days
Vd/F ([3]; human, plasma, po, read-out: Oral volume of distribution (VZ/F)): ~319 L
Tmax ([3]; human, plasma, oral, read-out: Median time to peak plasma concentrations (Tmax)): 3 to 4 h
Effect of inhibition of CYP2B6 on metabolite formation (CYP2B6 [4]): no effect
Tyrosine kinase activity of ROS1 (ROS1): inhibits
Ovarian finding (female rats): ovarian necrosis
Effect of inhibition of CYP2A6 on metabolite formation (CYP2A6): no effect
Median overall survival [5]: 11.5 months
Median progression-free survival [5]: 5.2 months
Induction of CYP2C9 (CYP2C9): does not induce
Decrease of single-dose plasma exposure (AUC0-inf) (CYP3A4 [6]): 77%
Inhibition of CYP2C8 (CYP2C8 [7]): inhibitor
Induction of CYP2C8 (CYP2C8 [8]): does not induce
Tyrosine kinase activity of TRKB (TRKB): inhibits
Effect on CYP2C19 pathway (CYP2C19 [9]): affected by cabozantinib in vitro
Induction of CYP1A2 (CYP1A2): does not induce
Effect of inhibition of CYP2C19 on metabolite formation (CYP2C19 [10]): no effect
Increase of single-dose plasma exposure (AUC0-inf) (CYP3A4 [11]): 38%
Kaplan-Meier landmark estimate of % of patients alive (95% CI) ([12]; 6 months): 72 (67-76) %
Kaplan-Meier landmark estimate of % of patients alive (95% CI) ([12]; 12 months): 46 (41-50) %
Kaplan-Meier landmark estimate of % of patients alive (95% CI) ([12]; 18 months): 32 (27-37) %
Kaplan-Meier landmark estimate of % of patients alive (95% CI) ([12]; 24 months): 18 (14-22) %
Disease control (partial response or stable disease) ([12]; ITT): 64%
Median overall survival ([12]; ITT, second interim analysis, 60 mg once daily): 10.2 months
Objective response rate ([12]; RECIST 1.1, confirmed responses, ITT): 4%
Median progression-free survival ([12]; RECIST 1.1 per investigator, ITT): 5.2 months
Best overall response: complete response, n (%) ([12]; by investigator): 0
Best overall response: not evaluable or missing ([12]; by investigator): (15) %
Best overall response: partial response ([12]; by investigator): (4) %
Best overall response: progressive disease ([12]; by investigator): (21) %
Best overall response: stable disease ([12]; by investigator): (60) %
Improvement in progression-free survival vs placebo ([12]; in vivo): more than 3 months
Median overall survival [12, 16]: 11.3 months
Median progression-free survival [12, 16]: 5.5 months
Inhibition of CYP2D6 (CYP2D6): does not inhibit
Differences in mean plasma exposure among normal liver function, mild and moderate hepatic impairment [13]: no clinically significant differences
Induction of CYP2B6 (CYP2B6 [14]): does not induce
Induction of CYP2C19 (CYP2C19 [15]): does not induce
Tyrosine kinase activity of AXL (AXL): inhibits
